Results as given in paper PMC6839174, “Targeting the Formyl Peptide Receptor type 1 to prevent the adhesion of ovarian cancer cells onto mesothelium and subsequent invasion” (Journal of Experimental & Clinical Cancer Research : CR, 2019).
Non-standard residues stand in square brackets, D forms with d. No end group written: not given here. *: point of attachment. Nle = CCCC[C@H](N)C(=O)O; For = O=C*

Assays:
SKOV-3 cells [1] = assay: Adhesion kinetic of SKOV-3 cells onto Vn monitored in real time (xCELLigence); assay type: cell-based, Human; details: SKOV-3 pre-exposed to 100 nM peptide, 2 h, cell index, quadruplicate representative of 3 replicates
Protocol: This assay was performed using E-16-well plates and the xCELLigence Real Time Cell Analysis technology. Bottom wells were coated with serum-free medium, 5 μg mL Vn, 5 μg mL Fn, 5 μg mL Lm or 15 μg mL Coll diluted in serum-free medium prior to seeding cells (1 × 10^4 cells/well) suspended in serum-free medium. Cells that adhere to the bottom of plates cause impedance changes which are proportional to the number of cells. The impedance value of each well was automatically monitored in real-time for at least 2 h and expressed as a cell index value. The experiments were performed three times in quadruplicate.

FPR1 [2] = assay: Agonist-dependent FPR1 internalization in EOC cells (confocal microscopy); assay type: cell-based, human; details: primary EOC cells, 10 nM fluorescent peptide, 30 min at 37 °C
Protocol: Cells (2 × 10^4/sample) were seeded on glass coverslips and cultured for 24 h in growth medium. Then, slides were washed with PBS, fixed with 2.5% formaldehyde in PBS for 10 min at 4 °C and incubated for 1 h at 4 °C with 2 μg/mL R4 anti-uPAR mAb or 1:100 rabbit anti-FPR1 Ab (#113531Ab, Abcam). Then, 1:700 goat Alexa Fluor 488 anti-rabbit IgG, or rabbit Alexa Fluor 488-conjugated F(ab’)2 fragment of anti-mouse IgG (Molecular Probes) were applied to slides at 23 °C for 40 min. Nuclear staining was performed with 4-6-diamidino-2-phenylindole dye (DAPI). To analyze agonist-dependent FPR1 internalization, cells grown on glass slides were exposed to 10 nM FITC-fMLF or 10 nM FITC-RI-3 diluted in serum-free DMEM for 30 min at 37 °C as described. After extensive washing with PBS, coverslips were mounted using 20% (w/v) mowiol, visualized with the 510 META-LSM confocal microscope (Carl Zeiss).

FPR1 [3] = assay: Ligand binding assay with FITC-RI-3 on primary EOC cells; design: species or system human; details: for prevention of FITC-RI-3 binding by unlabeled peptide: primary EOC cells, 100 nM peptide pre-incubated 60 min at 4 °C, then 10 nM FITC-RI-3 60 min at 4 °C, three experiments
Protocol: EOC cells were pre-incubated with diluents or the indicated unlabeled peptides for 60 min at 4 °C (to avoid internalization), extensively rinsed with phosphate buffer saline (PBS), exposed to 10 nM FITC-RI-3 diluted in PBS, for additional 60 min at 4 °C and again rinsed with PBS. Quantification of cell associated fluorescence was assessed by reading cells with the fluorescence plate reader Victor 3. The experiments were performed three times in duplicate.

cell migration = details: FITC-RI-3, compared with non-fluorescent peptide; ref [38]; cited from earlier work
From the text: In order to obtain primary cultures of EOC cells, representative fragments of tissue samples were fragmented and cells recovered, as described in the Methods. By enzymatic digestion of a HGSC tissue sample (patient #5), a primary cell culture expressing high levels of both uPAR and FPR1 on cell surface as shown by IHC, was obtained (Figs. 4 and 5a). Subsequent sub-cloning of isolated cell clusters (Fig. 5b) followed by five passages allowed us to obtain an adherent, homogeneous, CD326 positive cell population. These EOC cells express a considerable amount of both uPAR and FPR1 as shown by West ...

SKOV-3 cells [4] = assay: Adhesion of SKOV-3 cells onto extracellular matrix proteins (24-well plates, cell counting); assay type: cell-based, Human; details: SKOV-3 pre-incubated with 100 nM peptide 30 min at 37 °C, 2 h; for cell adhesion onto Coll, Fn or Lm after desensitization: collagen, fibronectin, laminin; for cell adhesion onto Vn after desensitization: vitronectin, means ± SD of three independent experiments
Protocol: Adhesion assays were performed using 24 multi-well plates coated with 1% BSA, 5 μg mL vitronectin (Vn), 5 μg mL fibronectin (Fn), 5 μg mL laminin (Lm) or 15 μg mL collagen (Coll) diluted in serum-free medium. Sub-confluent cells were harvested by a mild trypsinization, incubated with 10% FBS / DMEM for 1 h at 37 °C, 5% CO2, acid treated with a buffer containing 50 mM glycin-HC1, 0.1 M NaCl, pH 3 for 4 min at 22 °C, to remove receptor-bound ligands, and counted. Viable cells (2 × 10^5 cells per well) were plated in serum-free medium, in the absence or presence of 2 μg/mL R3 mAb recognizing the DI uPAR domain, 2 μg/mL399 anti-uPAR (American Diagnostica), 2 μg/mL anti-uPAR84-95 (PRIMM), 2 μg/mL anti-α-tubulin (Cell Signaling) Abs or 10 nM RI-3, and allowed to adhere for 2 h at 37 °C, 5% CO2. […] At the end of the assay, adherent cells were removed with 0.05% trypsin, and counted. The number of adherent cells was expressed as a percentage of the basal cell adhesion (CTRL). The experiments were performed at least three times in triplicate.

FPR1 [5] = details: 100 nM peptide, 30 min at 37 °C; ref [37], [38]; cited from earlier work
EOC cells = assay: EOC cell adhesion to and crossing of mesothelial cell monolayers (summary statement); assay type: cell-based, human; details: EOC cells exposed to RI-3 or desensitized with an excess of SRSRY
Protocol: HPMCs (1 × 10^5 cells/well) suspended in growth medium, were seeded in 24-well plates and allowed to adhere for about 20 h until they form a confluent monolayer, prior to seeding GFP-tagged EOC cells suspended in growth medium plus diluents or 10 nM RI-3. At the indicated times, plates were accurately washed with PBS and cell-associated fluorescence was assessed by a fluorescence plate reader a fluorescence plate reader (Victor 3, Perkin Elmer), using 485 nm excitation and 535 nm emission filters. The experiments were performed three times in triplicate.
HPMCs (5 × 10^3 cells/well) suspended in growth medium, were seeded in E-16-well plates and allow to adhere for 18–20 h until they form a confluent monolayer, prior to seeding EOC cells (2 × 10^4 cells/well) in growth medium plus/minus 10 nM RI-3. When HPMCs are challenged with invading cells, there is a drop in electrical resistance within 2–4 h which is monitored in real-time as the Cell Index changes due to the rupture of mesothelium. The experiments were performed three times in quadruplicate.

vitronectin receptor = tested on: vitronectin receptor; design: method as in PMID 15866865, PMID 20880257; details: inside-out mechanism involving PKC, AKT and MAPK; ref [26], [28]; cited from earlier work
[6] = tested on: cell migration and ECM attachment; details: independently of the uPA catalytic activity; ref [14], [24]–[26]; cited from earlier work
From the text: Ovarian cancer cells detach from the primary tumor and float in the ascitic fluid as single cells or multicellular, chemo-resistant spheroids. Then, floating cancer cells must resist anoikis triggered by lack of attachment to the mesothelium to evade clearance through the peritoneal lymphatics.

| Substance | adhesion onto Vn in real time after desensitization (SKOV-3 cells [1]) | FPR1 internalization (FPR1 [2]) | cell adhesion onto Coll, Fn or Lm after desensitization (SKOV-3 cells [4]) | cell adhesion onto Vn after desensitization (SKOV-3 cells [4]) | prevention of FITC-RI-3 binding by unlabeled peptide (FPR1 [3]) | availability of FPR1 on cell surface after desensitization (FPR1 [5]) | FPR1 interaction activating the vitronectin receptor (vitronectin receptor) | regulation of cell migration and ECM attachment [6] | further results |
| --- | --- | --- | --- | --- | --- | --- | --- | --- | --- |
| ARARY [control peptide ARARY] | ineffective | – | – | – | – | – | – | – | – |
| Ac-(D)-Tyr-(D)-Arg-Aib-(D)-Arg-Ahx-Lys (N^ɛ-FITC)-NH2 [FITC-RI-3, fluorescein-conjugate of RI-3] | – | little or no internalization | – | – | – | – | – | – | binding of FITC-RI-3 to EOC cell surface (FPR1 [3]; primary EOC cells (patient #5), 10 nM FITC-RI-3 in PBS, 60 min at 4 °C, fluorescence): specific, saturable RI-3 uptake on EOC cell surface; FPR1 binding and inhibition of cell migration (cell migration): binding FPR1 and inhibiting cell migration like the non-fluorescent peptide |
| For-[Nle]LF[Nle]YK [FITC-fMLF, fluorescein conjugate hexapeptide Formyl-Nle-Leu-Phe-Nle-Tyr-Lys, reference compound] | – | caused FPR1 internalization | – | – | – | – | – | – | – |
| N-Formyl-L-methionyl-L-leucyl-L-phenylalanine [fMLF] | abrogates cell capability to adhere onto Vn | – | not onto Coll, Fn or Lm | lose the ability to adhere onto Vn | prevented | unavailability of FPR1 on cell surface | – | – | – |
| Ser-Arg-Ser-Arg-Tyr [SRSRY, synthetic shorter pentapeptide uPAR88–92] | abrogates cell capability to adhere onto Vn | – | not onto Coll, Fn or Lm | lose the ability to adhere onto Vn | prevented | unavailability of FPR1 on cell surface | internalizes and activates the vitronectin receptor | potent regulators of cell migration and ECM attachment | ability to cross mesothelial cell monolayers (abstract) (EOC cells): losing the ability to cross them |
| uPAR84–95: The domain boundary between DI-DII (uPAR84–95 sequence) (AVTYSRSRYLEC; UniProt Q03405 106-117, looked up, fragment) | – | – | – | – | – | – | internalizes and activates the vitronectin receptor | potent regulators of cell migration and ECM attachment | – |
